# According to PubChem BioAssay AID1963980 (Molecular Pharmacology Branch, DTP, NCI, 2024):
# Test system: 475296-252-R-J1-PDC spheroid viability
# Assay: Anticancer human tumor 475296-252-R-J1-PDC patient-derived rectal carcinoma cell line growth inhibition [PI3K]
# Settings: spheroids with HUVEC and MSC; for viability, T/C: stronger effect = lower value
# Summary of the method: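 Viability of mixed-cell spheroids was determined after exposure to pairwise combinations, one partner being inavolisib, alpelisib, duvelisib or copanlisib. Highest tested concentration matched clinical Cmax where known and 10 microM where not, descending in half-log steps.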
# 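Further: spheroids exposed to agents for seven days before readout.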
smiles,measurement,setting,value
CC(C)n1nc(-c2ccc3oc(N)nc3c2)c2c(N)ncnc21 + Cc1nc(NC(=O)N2CCCC2C(N)=O)sc1-c1ccnc(C(C)(C)C(F)(F)F)c1,IC50,"curve of first compound, second compound 0.0316 µM",> 100 nM
same,IC50,"curve of first compound, second compound 0.1 µM",> 100 nM
same,IC50,"curve of first compound, second compound 0.316 µM",> 100 nM
same,IC50,"curve of first compound, second compound 1 µM",> 100 nM
same,IC50,"curve of first compound, second compound 3.16 µM",> 100 nM
same,IC50,"curve of first compound, second compound 10 µM",> 100 nM
same,"viability, T/C","second compound 0.0316 µM, first compound 0.000316 µM",93.5%
same,"viability, T/C","second compound 0.0316 µM, first compound 0.001 µM",95.3%
same,"viability, T/C","second compound 0.0316 µM, first compound 0.00316 µM",93.1%
same,"viability, T/C","second compound 0.0316 µM, first compound 0.01 µM",88.4%
same,"viability, T/C","second compound 0.0316 µM, first compound 0.0316 µM",83.9%
same,"viability, T/C","second compound 0.0316 µM, first compound 0.1 µM",64.1%
same,"viability, T/C","second compound 0.1 µM, first compound 0.000316 µM",92.1%
same,"viability, T/C","second compound 0.1 µM, first compound 0.001 µM",98%
same,"viability, T/C","second compound 0.1 µM, first compound 0.00316 µM",95.2%
same,"viability, T/C","second compound 0.1 µM, first compound 0.01 µM",84.5%
same,"viability, T/C","second compound 0.1 µM, first compound 0.0316 µM",76.8%
same,"viability, T/C","second compound 0.1 µM, first compound 0.1 µM",62%
same,"viability, T/C","second compound 0.316 µM, first compound 0.000316 µM",97.1%
same,"viability, T/C","second compound 0.316 µM, first compound 0.001 µM",95.4%
same,"viability, T/C","second compound 0.316 µM, first compound 0.00316 µM",85%
same,"viability, T/C","second compound 0.316 µM, first compound 0.01 µM",92.8%
same,"viability, T/C","second compound 0.316 µM, first compound 0.0316 µM",85.9%
same,"viability, T/C","second compound 0.316 µM, first compound 0.1 µM",59.9%
same,"viability, T/C","second compound 1 µM, first compound 0.000316 µM",89.8%
same,"viability, T/C","second compound 1 µM, first compound 0.001 µM",106%
same,"viability, T/C","second compound 1 µM, first compound 0.00316 µM",87.3%
same,"viability, T/C","second compound 1 µM, first compound 0.01 µM",91.9%
same,"viability, T/C","second compound 1 µM, first compound 0.0316 µM",70.2%
same,"viability, T/C","second compound 1 µM, first compound 0.1 µM",57.1%
same,"viability, T/C","second compound 3.16 µM, first compound 0.000316 µM",83.4%
same,"viability, T/C","second compound 3.16 µM, first compound 0.001 µM",86%
same,"viability, T/C","second compound 3.16 µM, first compound 0.00316 µM",88.4%
same,"viability, T/C","second compound 3.16 µM, first compound 0.01 µM",77.5%
same,"viability, T/C","second compound 3.16 µM, first compound 0.0316 µM",82.3%
same,"viability, T/C","second compound 3.16 µM, first compound 0.1 µM",54.3%
same,"viability, T/C","second compound 10 µM, first compound 0.000316 µM",91.1%
same,"viability, T/C","second compound 10 µM, first compound 0.001 µM",85.1%
same,"viability, T/C","second compound 10 µM, first compound 0.00316 µM",83.8%
same,"viability, T/C","second compound 10 µM, first compound 0.01 µM",89.2%
same,"viability, T/C","second compound 10 µM, first compound 0.0316 µM",86.5%
same,"viability, T/C","second compound 10 µM, first compound 0.1 µM",54.4%
C[C@@H](NC(=O)c1ncnc(N)c1Cl)c1ncc(C(=O)Nc2cc(C(F)(F)F)c(Cl)cn2)s1,"viability, T/C",compound 0.0316 µM,89.7% [middle of 4 runs]
same,"viability, T/C",compound 0.1 µM,99.8% [middle of 4 runs]
same,"viability, T/C",compound 0.316 µM,95.5% [middle of 4 runs]
same,"viability, T/C",compound 1 µM,101% [middle of 4 runs]
same,"viability, T/C",compound 3.16 µM,103% [middle of 4 runs]
same,"viability, T/C",compound 10 µM,87.5% [middle of 4 runs]
same,IC50,curve of compound,> 10000 nM
